Laboratory results from paper PMC5452965 (PeerJ, 2017).
Like-named read-outs stand apart in the source and are kept apart here.

Tests used:
[1] = tested on: actin filaments in Hela cells; conditions: cited from earlier work
[2] = tested on: MCF-7 cells; conditions: MTT, 72 h; ref Wang et al. (2016a); cited from earlier work
[3] = tested on: U2OS cells; conditions: MTT, 48 h; ref Wang et al. (2016a); cited from earlier work
[4] = tested on: cellular actin filaments in actin-RFP Hela cells; conditions: ref Wang et al. (2016a); cited from earlier work
[5] = tested on: Hela cells; conditions: MTT, 48 h; ref Wang et al. (2016a); cited from earlier work
[6] = tested on: mitotic spindles in Hela cells; conditions: Hela metaphase cells, 24 h, IC50; ref Wang et al. (2016a); cited from earlier work
[7] = tested on: Hela cells; conditions: 24 h, ref Wang et al. (2016a), cited from earlier work
[8] = tested on: Hela, MCF-7 and U2OS cells; experiment: MTT assay, summary over three cell lines; type: cell-based; conditions: Homo sapiens; range over Hela, MCF-7, U2OS and over the three cucurbitacins
Protocol: (§1) The anti-proliferative effects of cucurbitacins were assessed using MTT assay, as previously described ([Nurcahyanti & Wink, 2015]). In brief, cells (1 × 10^4) were seeded in 96-well plates and incubated with different concentrations of cucurbitacins for 48 h (Hela, U2OS) and 72 h (MCF-7). MTT solution was then added and incubated for 2 h. The plates were read at 570 nm after the addition of DMSO using Tecan infinite M200 Pro (Tecan, Crailsheim, Germany).
(§2) All experiments were done in triplicate, repeated three times. Data are presented as mean ± standard deviation (SD). Statistical comparison between controls and different treatments were performed by an unpaired student’s t test using Microsoft excel 2013 (Microsoft Corporation, Washington, USA). Significance was considered at p < 0.05.

[9] = tested on: U2OS cells; experiment: MTT assay (cytotoxicity), U2OS; type: cell-based, human; conditions: 48 h
Protocol: as §1, §2

[10] = tested on: MCF-7 cells; experiment: MTT assay (cytotoxicity), MCF-7; type: cell-based, human
Protocol: as §1, §2

[11] = tested on: Hela cells; experiment: Cell cycle analysis (propidium iodide, flow cytometry); type: cell-based, human; conditions: 24 h
Protocol: Cell cycle analysis was carried out as established in our laboratory ([Su, Cheng & Wink, 2015]). Briefly, Hela cells (5 × 10^5) were seeded in 6-well-plates and treated with different concentrations of cucurbitacins for 24 h. Cells were then collected, centrifuged and fixed in 70% ice-cold ethanol for at least 8 h. After washing steps, cells were treated with 0.2 mg/ml RNase A for 30 min at 37 C and then stained with 0.1 mg/ml propidium iodide. Samples were analyzed using a FACScan flow cytometer (Becton Dickinson, Heidelberg, Germany). Data were analyzed using Cell Quest™ Pro software (Becton Dickinson) and Microsoft excel (Microsoft Corporation, Washington, USA).

[12] = target: T1, Porcine brain tubulin plus MAPs (Sus scrofa, UniProt P02550+P02554); experiment: In vitro tubulin polymerization assay; type: biochemical; conditions: for effect on tubulin assembly in vitro at 1 mM: Figure 4D
T1 construct: Porcine brain tubulin plus MAPs was prepared by two cycles of polymerization and depolymerization; from tissue; host or cells: porcine brain
Protocol: Porcine brain tubulin plus MAPs was prepared by two cycles of polymerization and depolymerization according to a standard protocol ([Gell et al., 2011]). In-vitro tubulin polymerization assays were carried out in PEM buffer (100 mM PIPES, 2 mM EGTA, 0.1 mM EDTA, 3 mM MgCl2, 1 mM ATP and 1 mM GTP, pH 6.85) by mixing 5.6 mg/ml tubulin-MAPs with different concentrations of cucurbitacins in 96-well plates at 37°C for 40 min. The rate and extent of the polymerization reaction were monitored by light scattering at 360 nm using Tecan infinite M200 Pro.
as §2

[13] = tested on: microtubule network in α-tubulin-GFP U2OS cells; experiment: Imaging of tubulin-GFP transfected U2OS cells; type: cell-based, human; conditions: IC80 and IC50, 2-48 h
Protocol: Cells were imaged using a Keyence BZ-9000 microscope (Keyence; Neu-Isenburg, Germany) after incubation for 2 h, 4 h, 24 h and 48 h. The images were analyzed using BZ-II Analyzer software (version 2.1, Keyence; Neu-Isenburg, Germany).

[14] = tested on: Hela cells; experiment: MTT assay (cytotoxicity), Hela; type: cell-based, human; conditions: 48 h; for IC80: 80% reduction of cell viability
Protocol: as §1, §2

[15] = tested on: mitotic spindles in Hela cells; experiment: Immunofluorescence staining, mitotic spindles; type: cell-based, human; conditions: Hela metaphase cells, 24 h, IC50
Protocol: The immunofluorescence staining was carried out as established in our laboratory ([Wang et al., 2016a]).

[16] = target: T1, Porcine brain tubulin plus MAPs
[17] = tested on: microtubule network in α-tubulin-GFP U2OS cells; conditions: cited from earlier work
[18] = 1 h and 24 h, ref Wang et al. (2016a)

T1 sequence (P02550 whole entry): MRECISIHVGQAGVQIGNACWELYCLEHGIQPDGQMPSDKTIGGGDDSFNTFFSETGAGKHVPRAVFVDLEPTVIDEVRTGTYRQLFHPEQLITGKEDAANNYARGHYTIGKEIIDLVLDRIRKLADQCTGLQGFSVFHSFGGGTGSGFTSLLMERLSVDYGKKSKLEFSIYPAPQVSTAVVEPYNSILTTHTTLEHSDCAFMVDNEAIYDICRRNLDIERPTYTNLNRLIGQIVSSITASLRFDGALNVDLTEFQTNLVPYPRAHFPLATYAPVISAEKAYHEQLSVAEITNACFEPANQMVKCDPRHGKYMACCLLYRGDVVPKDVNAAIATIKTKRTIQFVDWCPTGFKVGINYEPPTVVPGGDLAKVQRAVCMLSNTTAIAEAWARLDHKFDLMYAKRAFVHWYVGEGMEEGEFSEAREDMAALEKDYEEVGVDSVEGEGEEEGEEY
T1 sequence (P02554 whole entry): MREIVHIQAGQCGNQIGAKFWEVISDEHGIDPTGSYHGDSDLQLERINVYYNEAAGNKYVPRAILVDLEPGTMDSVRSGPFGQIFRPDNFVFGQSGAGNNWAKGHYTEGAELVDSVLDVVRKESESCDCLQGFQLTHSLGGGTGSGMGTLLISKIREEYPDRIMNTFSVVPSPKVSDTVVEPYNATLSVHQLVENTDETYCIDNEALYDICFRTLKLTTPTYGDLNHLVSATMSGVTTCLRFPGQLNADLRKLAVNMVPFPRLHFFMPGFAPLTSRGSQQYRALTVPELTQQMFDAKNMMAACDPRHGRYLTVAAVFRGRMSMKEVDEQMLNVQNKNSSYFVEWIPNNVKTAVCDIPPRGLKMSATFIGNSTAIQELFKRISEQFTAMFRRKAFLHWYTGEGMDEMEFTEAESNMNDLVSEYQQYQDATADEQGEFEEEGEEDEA

| Molecule | effect on actin filaments (immunofluorescence) [1, 18] | IC80 [2] | IC80 [3] | effect on cellular actin filaments (actin-RFP) [4] | IC80 [5] | effect on mitotic spindles [6] | effect on cell cycle [7] | IC50 [8] | IC50 ([9]; Homo sapiens, U2OS) | IC80 ([9]; Homo sapiens, U2OS) | IC50 ([10]; Homo sapiens, MCF7, 72 h) | IC80 ([10]; Homo sapiens, MCF7, 72 h) | effect on cell cycle [11] | IC50 [12] | effect on cellular microtubule network [13] | IC50 ([14]; Homo sapiens, HeLa) | IC80 ([14]; Homo sapiens, HeLa) | effect on mitotic spindles [15] | effect on tubulin assembly in vitro [12] | effect on tubulin assembly in vitro at 1 mM [12] | also measured |
| --- | --- | --- | --- | --- | --- | --- | --- | --- | --- | --- | --- | --- | --- | --- | --- | --- | --- | --- | --- | --- | --- |
| COc1cc2c(c(OC)c1OC)-c1ccc(OC)c(=O)cc1[C@@H](NC(C)=O)CC2 [Colchicine, colchicine] | No apparent changes on actin filaments | 0.0799 ± 0.0409 µM | 0.87 ± 1.46 µM | No notable changes on actin filaments | 0.027 ± 0.00748 µM | completely depolymerized spindle with the compacted chromosomes | dose-dependent G2/M cell cycle arrest | – | – | – | – | – | – | – | – | – | – | – | – | – | G2/M population ([7]; 0.1μM): 89.66 ± 2.04% |
| CC(=O)OC(C)(C)/C=C/C(=O)[C@](C)(O)[C@H]1[C@H](O)C[C@@]2(C)[C@@H]3CC=C4[C@@H](C=C(O)C(=O)C4(C)C)[C@]3(C)C(=O)C[C@]12C [Cucurbitacin E, cucurbitacin E] | – | – | – | – | – | – | – | 0.00643 to 0.0647 µM | 0.0151 ± 0.00451 µM | 0.0263 ± 0.0185 µM | 0.054 ± 0.00316 µM | 0.92 ± 0.2 µM | potential ability to arrest cell cycle at G2/M phase | 567 ± 113 µM | changed the morphology of microtubule network into half-stretching state after 2 h incubation then round state after 24 h incubation | 0.00643 ± 0.00105 µM | 0.0151 ± 0.00267 µM | disordered distribution of spindle array | – | – | G2/M population ([11]; 0.3μM): 59.35 ± 5.69%; effect on phases of microtubule assembly (nucleation, growth, steady state) [12]: did not affect the nucleation but inhibited the growth phase and steady state |
| CC(C)(O)/C=C/C(=O)[C@](C)(O)[C@H]1[C@H](O)C[C@@]2(C)[C@@H]3CC=C4[C@@H](C=C(O)C(=O)C4(C)C)[C@]3(C)C(=O)C[C@]12C [Cucurbitacin I, cucurbitacin I] | – | – | – | – | – | – | – | 0.00643 to 0.0647 µM | 0.0235 ± 0.0169 µM | 0.034 ± 0.0177 µM | 0.0647 ± 0.0143 µM | 0.29 ± 0.08 µM | potential ability to arrest cell cycle at G2/M phase | > 1000 µM | – | 0.0448 ± 0.00154 µM | 0.0555 ± 0.00363 µM | multipolar spindles and chromosomes mis-segregation on the metaphase plate | did not affect the tubulin assembly in vitro | did not affect the assembly | G2/M population ([11]; 0.6μM): 59.18 ± 7.2% |
| C/C1=C/C(=O)O[C@@H]2C[C@@H](CC[C@H](C)/C=C\CC1)O[C@@](O)([C@@H]1CSC(=O)N1)C2 [Latrunculin B, latrunculin B] | actin cytoskeleton extensively disrupted | 140 ± 6.58 µM | 37.2 ± 15.7 µM | actin cytoskeleton significantly disrupted | 63.9 ± 5.68 µM | did not alter mitotic spindles and chromosome arrangements | dose-dependent G2/M cell cycle arrest | – | – | – | – | – | – | – | – | – | – | – | – | – | IC50 [2]: 38.5 ± 1.7 µM; IC50 [3]: 5.67 ± 0.59 µM; IC50 ([16]; read-out: IC50, inhibition of tubulin polymerization in vitro; 5.6 mg/ml tubulin-MAPs, 37°C, 40 min; ref Wang et al. (2016a); cited from earlier work): > 1000 µM; effect on cellular microtubule network ([17]; both concentrations (IC80, IC50), ref Wang et al. (2016a)): changed the cell morphology from stretching state into round state; IC50 [5]: 11.2 ± 1.27 µM |
| CC[C@]1(O)C[C@@H]2CN(CCc3c([nH]c4ccccc34)[C@@](C(=O)OC)(c3cc4c(cc3OC)N(C)[C@H]3[C@@](O)(C(=O)OC)[C@H](OC(C)=O)[C@]5(CC)C=CCN6CC[C@]43[C@@H]65)C2)C1 [Vinblastine, vinblastine] | – | 2.08 ± 0.92 µM | 1.15 ± 0.51 µM | No notable changes on actin filaments | 0.7 ± 0.34 µM | depolymerized bipolar spindles | dose-dependent G2/M cell cycle arrest | – | – | – | – | – | – | – | – | – | – | – | – | – | effect on actin filaments (immunofluorescence) ([1]; 24 h, concentration of IC80, ref Wang et al. (2016a)): slight reduction of actin filament mass; IC50 [2]: 6e-05 ± 5e-05 µM; IC50 [3]: 0.00011 ± 7e-05 µM; IC50 ([16]; 5.6 mg/ml tubulin-MAPs, 37°C, 40 min; ref Wang et al. (2016a); read-out: IC50, inhibition of tubulin polymerization in vitro; cited from earlier work): 1.57 ± 0.34 µM; effect on phases of microtubule assembly (nucleation, growth, steady state) ([16]; ref Wang et al. (2016a); cited from earlier work): inhibited the nucleation and growth phase during the assembly; effect on cellular microtubule network ([17]; concentration of IC50, ref Wang et al. (2016a)): extensively depolymerized microtubules; effect on cellular microtubule network ([17]; concentration of IC80, ref Wang et al. (2016a)): tubulin paracrystals were formed and dispersed through out the cytoplasm; IC50 [5]: 2e-05 ± 1e-05 µM; G2/M population ([7]; 10 nM): 78.04 ± 14.78% |
| cucurbitacin B | – | – | – | – | – | – | – | – | – | – | – | – | potential ability to arrest cell cycle at G2/M phase | – | changed the morphology of microtubule network into half-stretching state after 2 h incubation then round state after 24 h incubation | – | – | disordered distribution of spindle array | did not affect the tubulin assembly in vitro | did not affect the assembly | IC50 [9]: 0.0171 ± 0.00455 µM; IC80 [9]: 0.0281 ± 0.0152 µM; IC50 ([10]; 72 h): 0.0229 ± 0.00451 µM; IC80 ([10]; 72 h): 0.0437 ± 0.0106 µM; IC50 [14]: 0.0122 ± 0.00142 µM; IC80 [14]: 0.022 ± 0.00139 µM; effect on tubulin polymerization in vitro ([16]; same assay; ref Duangmano et al. (2012); cited from earlier work): did not affect tubulin polymerization in vitro |
